In US6890523B2 (priority 1999, dated 2005):

Tested on: C. difficile
Conditions: hamster; relapse/recurrence of CDAD
Method: Compounds were evaluated for their ability to inhibit the activity of C. difficile toxins the hamster model of C. difficile colitis. Male hamsters (80-100 g) were purchased Biobreeders Inc. (Falmouth, Mass.). All animals were maintained in groups of five in microisolator cages on autoclaved bedding (Beta Chips) and given free access to autoclaved chow and autoclaved, filtered water. Animals were rested approximately 1 week following arrival and prior to initiation of a study. A C. difficile strain initially isolated from a human C. difficile colitis was used to infect the animals. This strain (HUC2-4) produces moderate to high levels of toxins in vitro and in vivo. A suspension of 10^6-10^7 bacterial cells/ml was prepared from an overnight broth culture and 0.1 ml was administered by oral gavage on day −1. Twenty-four hours later, each animal was injected subcutaneously with Cleocin Phosphate IV® at a dose of 10 mg/kg. Polymers were administered to groups of ten animals by gavage three times daily (t.i.d). The dose of polymers was 25-100 mg/day, administered in three divided doses of 0.75 ml each. Initiation and duration of dosing varied according to the treatment regimens as described below. Animals were observed daily for morbidity or mortality. Additional parameters assessed were general appearance, time to onset of clinical signs, and presence or absence of diarrhea (“wet tail”). […]

Cc1ncc([N+](=O)[O-])n1CCO [metronidazole]
time to death after discontinuing metronidazole: 3 to 6 days
